Data reported in PubChem BioAssay AID467 (The Scripps Research Institute Molecular Screening Center, 2006).
Activity calls are given as the source filed them. No rule for the calls is given here.

Test system: parental cell line counter screen, S1P1 agonist assay readout
Assay: signal in parental cells, counter-screen for S1P1 agonist project (AID 467);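 also: agonist potency measured against forskolin stimulation plus an EC20 level of SEW2871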

How did the EC50 turn out when `Cc1noc(/C=C/N(C)C)c1S(=O)(=O)N1CCc2ccccc21` was run?
The EC50 was > 95.1 µM (inactive).

`Cc1cc(C(=O)CSc2nnc(-c3ccco3)o2)c(C)n1-c1ccc2c(c1)OCCO2` was tested. Which EC50 did it give?
The EC50 was > 10 µM (inactive).

Which EC50 does the source give for `Cc1ccc(Cl)cc1N1CCN(C(=O)COc2ccc(S(=O)(=O)NC(C)C)cc2)CC1` here?
The EC50 was 30 µM (inactive).

`c1ccc(CSc2nnc(-c3cccs3)o2)cc1` was tested. Which EC50 did it give?
Its EC50 is > 95.1 µM (inactive).

With `Clc1ccc(-c2nc3nc4ccccc4nc3n2Cc2ccco2)cc1` as the compound, how does the EC50 read?
Its EC50 is > 95.1 µM (inactive).

How did the EC50 turn out when `Cc1oc(-c2ccccc2)nc1Cn1cccc1C1=NC(c2ccccc2)CO1` (centres undefined) was run?
Its EC50 is > 95.1 µM (inactive).

For `C=CCn1c(SCC(=O)c2cccs2)nc2sc(CC)cc2c1=O`, which EC50 is on record?
Its EC50 is 58.6 µM (inactive).

Which EC50 does the source give for `O=C(NCc1ccc2c(c1)OCO2)C1CC(=O)N(C2CCCCCCC2)C1` (centres undefined) here?
The EC50 was > 95.1 µM (inactive).

With `O=S1(=O)C=C(Sc2nc3ccccc3s2)c2ccccc21` as the compound, how does the EC50 read?
The EC50 was 1.26 µM.

For `COc1ccccc1-c1cc(C(=O)Nc2ccccc2SC)no1`, which EC50 is on record?
Its EC50 is > 95.1 µM (inactive).

Which EC50 does the source give for `CC(C)c1cc(C(=O)N2CCN(C(c3ccccc3)c3ccccc3)CC2)no1` here?
Its EC50 is > 95.1 µM (inactive).

Which EC50 does the source give for `Cc1nn(C(=O)c2cccs2)c(N)c1-c1ccccc1` here?
The EC50 was > 30 µM (inactive).

With `CC(C)Cn1c(N)c(C(=O)CSc2ccc3c(c2)OCCO3)c(=O)n(C)c1=O` as the compound, how does the EC50 read?
Its EC50 is 88.5 µM (inactive).

For `CC1(C)CC(=O)C(C=Nc2ccc3[nH]ncc3c2)=C(O)C1`, which EC50 is on record?
The EC50 was > 30 µM (inactive).

With `CCCN(C(=O)c1cccs1)c1nnc(-c2ccncc2)s1` as the compound, how does the EC50 read?
Its EC50 is > 95.1 µM (inactive).

Which EC50 does the source give for `CCCn1c(CN2CCN(c3cccc(Cl)c3)CC2)nc2c1c(=O)n(C)c(=O)n2C` here?
The EC50 was > 95.1 µM (inactive).

With `N#Cc1nc(-c2ccc(OCc3ccccc3)cc2)oc1NCc1cccnc1` as the compound, how does the EC50 read?
Its EC50 is > 95.1 µM (inactive).

How did the EC50 turn out when `Cc1csc(SCC(=O)c2cc(C)n(Cc3cccs3)c2C)n1` was run?
Its EC50 is 38.8 µM (inactive).

For `c1csc(CCNc2ncnc3sc4c(c23)CCC4)c1`, which EC50 is on record?
Its EC50 is 20.3 µM (inactive).

Which EC50 does the source give for `CCc1ccc(-c2nc(CSCC(=O)N3CCN(c4ccccn4)CC3)c(C)o2)cc1` here?
The EC50 was 18.7 µM (inactive).

For `OC(c1cccc(OCc2ccccc2)c1)c1nnc(-c2ccccc2)o1` (centres undefined), which EC50 is on record?
The EC50 was > 30 µM (inactive).

For `COc1ccc(N2CCn3c2nc2c3c(=O)n(CCCc3ccccc3)c(=O)n2C)c(OC)c1`, which EC50 is on record?
The EC50 was > 10 µM (inactive).

`CSc1ccc(S(=O)(=O)Nc2ccc3c(c2)OCCO3)cc1` was tested. Which EC50 did it give?
Its EC50 is 67.2 µM (inactive).

With `COC(=O)c1cc(CSc2nnc(-c3ccccc3)c(-c3ccccc3)n2)oc1C` as the compound, how does the EC50 read?
The EC50 was > 95.1 µM (inactive).

For `Cc1ccc(C(=O)c2cncc(Br)c2)cc1`, which EC50 is on record?
The EC50 was > 95.1 µM (inactive).

`CC(=O)N1C=CN(C(C)=O)C(c2cn(C)c3ccccc23)C1c1cn(C)c2ccccc12` (centres undefined) was tested. Which EC50 did it give?
Its EC50 is > 30 µM (inactive).

`O=C(C1CC1)N1CCc2cc(S(=O)(=O)NCC3COc4ccccc4O3)ccc21` (centres undefined) was tested. Which EC50 did it give?
Its EC50 is > 30 µM (inactive).

For `Cc1cccc(OCCCCc2c(C)n[nH]c2C)c1C`, which EC50 is on record?
Its EC50 is 29.3 µM (inactive).

`CCOC(=O)CN1C(=O)C(C)(C)Oc2ccc(C(=O)Nc3ccccc3OC)cc21` was tested. Which EC50 did it give?
Its EC50 is > 95.1 µM (inactive).

How did the EC50 turn out when `O=S(=O)(c1cccs1)N1CCN(CC(O)COc2cc(Cl)ccc2Cl)CC1` (centres undefined) was run?
The EC50 was 24.6 µM (inactive).

`Fc1ccc2[nH]c3c(N4CCN(c5ccccc5)CC4)ncnc3c2c1` was tested. Which EC50 did it give?
The EC50 was 18.5 µM (inactive).

How did the EC50 turn out when `COc1ccc(N=c2scc(-c3ccc(S(=O)(=O)N4CCOCC4)cc3)n2CCCO)cc1` was run?
The EC50 was > 30 µM (inactive).

How did the EC50 turn out when `c1ccc(-c2ccc(-c3nc(-c4cccnc4)no3)cc2)cc1` was run?
Its EC50 is > 95.1 µM (inactive).

`COc1ccc(CCNc2ncnc3c2oc2ccccc23)cc1OC` was tested. Which EC50 did it give?
The EC50 was 5.31 µM.

Which EC50 does the source give for `Clc1ccc(CCNc2ncnc3nc[nH]c23)cc1` here?
Its EC50 is 33.6 µM (inactive).

How did the EC50 turn out when `CCc1cc(-c2[nH]ncc2-c2ccc3c(c2)OCO3)c(O)cc1O` was run?
The EC50 was 9.08 µM.

For `CC(C)Oc1cc(O)c2c(=O)c(-c3ccc(O)cc3)coc2c1`, which EC50 is on record?
Its EC50 is 20.5 µM (inactive).

With `Cc1ccc(N2C(=O)c3cccc4c(N5CCN(C)CC5)ccc(c34)C2=O)c2cccnc12` as the compound, how does the EC50 read?
Its EC50 is > 95.1 µM (inactive).

Which EC50 does the source give for `COc1ccc(-c2cn3c(C)c(C(=O)Nc4ccncc4)sc3n2)cc1` here?
Its EC50 is > 95.1 µM (inactive).
